Common to all, as to experiment: biochemical
One assay has as its target HLA-DR DRB1*08:02 (Homo sapiens, UniProt P01903+P01911, A100R/A103L/A169T/F76Y/H45Y/I96F/K41T/L162R/M171V/P40S/Q125H/Q178H/Q39Y/Q99D/R218S/R42G/S66Y/V115G/W38E). Format: binding.
Assay [1] addresses T1, HLA-DP DPA1*01:03/DPB1*03:01 (Homo sapiens, UniProt P04440+P20036, A65V/A84D/A85E/E86D/F38Y/G113D/G114E/G40L/I94L/L37V/M105V/M116V/P115A/R125K/T199I).
T1 sequence (P20036 29-260): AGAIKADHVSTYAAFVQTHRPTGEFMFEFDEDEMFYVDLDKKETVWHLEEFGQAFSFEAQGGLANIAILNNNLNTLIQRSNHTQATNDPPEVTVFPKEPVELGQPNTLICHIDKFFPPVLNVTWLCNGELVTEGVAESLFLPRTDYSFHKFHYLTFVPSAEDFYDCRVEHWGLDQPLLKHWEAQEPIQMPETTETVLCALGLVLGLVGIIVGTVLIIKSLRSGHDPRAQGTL
T1 sequence (P04440 30-258 L37V/F38Y/G40L/A65V/A84D/A85E/E86D/I94L/M105V/G113D/G114E/P115A/M116V/R125K/T199I): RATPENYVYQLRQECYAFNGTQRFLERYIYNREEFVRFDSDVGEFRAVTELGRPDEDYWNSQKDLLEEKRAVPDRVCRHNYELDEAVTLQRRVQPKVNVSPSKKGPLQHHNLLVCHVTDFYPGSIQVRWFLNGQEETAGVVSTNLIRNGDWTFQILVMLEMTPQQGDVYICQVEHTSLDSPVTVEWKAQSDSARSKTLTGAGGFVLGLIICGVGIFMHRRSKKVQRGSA
In kind it is binding.

The target of a further assay is HLA-DR DRB1*04:05 (Homo sapiens, UniProt P01903+P01911, A100R/A169T/D86S/F76Y/I96L/K127E/L162R/M171V/N62H/P40V/Q125Y/R42H/S133A/S149N/S66Y/V115G/V209L/W38E). Format: binding.
The target in a further assay is HLA-DR DRB1*12:01 (Homo sapiens, UniProt P01903+P01911, A100R/A169T/D57E/D86V/F55L/H45Y/K41T/L162R/M171V/P40S/Q125H/Q178H/Q39Y/Q99D/R42G/S66L/T262R/V114A/V67L/W38E/Y59H/Y61H/Y89S). Format: binding.
The next assay deals with HLA-DR DRB1*13:02 (Homo sapiens, UniProt P01903+P01911, A100E/A169T/K41T/L162R/M171V/P40S/Q125H/Q178H/Q39Y/Q99D/R42S/S66N/T262R/V115G/W38E/Y61H). In kind it is binding.
The target in the next assay is HLA-DR DRB4*01:01 (Homo sapiens, UniProt P01903+P13762, G164S). In kind it is binding. As to conditions: read-out: Binding capacity/IC50 (nM) DRB4*01:01.
For assay [2], the target named is T2, HLA-DP DPA1*02:01/DPB1*14:01 (Homo sapiens, UniProt P04440+P20036, A65V/A84D/A85E/E86D/F191V/F38H/G113D/G114E/G40L/I94L/K142R/L158P/L37V/M105V/M116V/M62Q/P115A/Q81R/R125K/T114A/T199I/T259P).
T2 sequence (P20036 29-260 A42M/M62Q/Q81R/T114A/K142R/L158P/F191V/T259P): T1 sequence (P20036 29-260) with A14M, M34Q, Q53R, T86A, K114R, L130P, F163V, T231P
T2 sequence (P04440 30-258 L37V/F38H/G40L/A65V/A84D/A85E/E86D/I94L/M105V/G113D/G114E/P115A/M116V/R125K/T199I/R223Q): T1 sequence (P04440 30-258 L37V/F38Y/G40L/A65V/A84D/A85E/E86D/I94L/M105V/G113D/G114E/P115A/M116V/R125K/T199I) with Y9H, R194Q
Format: binding.

The next assay deals with HLA-DR DRB1*15:01 (Homo sapiens, UniProt P01903+P01911). Format: binding.
Assay [3] deals with HLA-DP DPA1*03:01/DPB1*04:02 (Homo sapiens, UniProt P04440+P20036, A42M/A65V/A84D/A85E/L207M/L97S).
Chain of HLA-DP DPA1*03:01/DPB1*04:02 (P04440 whole entry A65V/A84D/A85E/L207M): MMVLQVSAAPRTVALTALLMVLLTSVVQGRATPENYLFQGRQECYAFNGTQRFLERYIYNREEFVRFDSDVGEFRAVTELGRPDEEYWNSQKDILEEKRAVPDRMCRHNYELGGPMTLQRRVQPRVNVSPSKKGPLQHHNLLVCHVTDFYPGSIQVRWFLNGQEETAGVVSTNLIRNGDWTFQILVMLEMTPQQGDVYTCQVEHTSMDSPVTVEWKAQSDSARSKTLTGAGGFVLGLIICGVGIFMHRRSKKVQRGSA
Chain of HLA-DP DPA1*03:01/DPB1*04:02 (P20036 whole entry A42M/L97S): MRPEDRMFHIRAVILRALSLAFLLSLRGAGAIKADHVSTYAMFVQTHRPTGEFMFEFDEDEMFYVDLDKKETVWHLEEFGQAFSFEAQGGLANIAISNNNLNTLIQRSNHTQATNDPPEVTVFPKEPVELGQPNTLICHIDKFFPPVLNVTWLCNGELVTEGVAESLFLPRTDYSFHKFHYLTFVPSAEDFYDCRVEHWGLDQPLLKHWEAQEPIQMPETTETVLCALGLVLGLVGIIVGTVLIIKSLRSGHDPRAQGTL
The next assay addresses HLA-DR DRB3*02:02 (Homo sapiens, UniProt P01903+P79483, A212P/D57E/F66Y/L67A/R103Q/R218S/R40L/S89Y/T80R/V86D/Y55F/Y59H). In kind it is binding.
In a further assay the target is HLA-DR DRB1*01:01 (Homo sapiens, UniProt P01903+P01911, A100R/D57E/F55L/F60I/F76Y/I96L/L162R/M171V/P40L/Q125E/R42F/V115G/Y59C). Format: binding.
Assay [4] addresses T3, HLA-DP DPA1*01:03/DPB1*02:01 (Homo sapiens, UniProt P04440+P20036, A65V/A84D/A85E/K98E).
T3 sequence (P20036 29-260): T1 sequence (P20036 29-260)
T3 sequence (P04440 30-258 A65V/A84D/A85E/K98E): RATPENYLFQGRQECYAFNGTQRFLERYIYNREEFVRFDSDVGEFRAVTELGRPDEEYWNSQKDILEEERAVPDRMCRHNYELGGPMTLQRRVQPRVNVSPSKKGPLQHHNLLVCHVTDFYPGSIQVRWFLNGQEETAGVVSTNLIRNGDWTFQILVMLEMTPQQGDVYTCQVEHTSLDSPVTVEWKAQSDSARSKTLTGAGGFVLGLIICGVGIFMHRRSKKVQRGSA
Format: binding.

[5] abbreviates: read-out: Binding capacity/IC50 (nM) DRB1*15:01.
The mark [6] stands for this setting: read-out: Binding capacity/IC50 (nM) DPA1*01:03 DPB1*02:01.
[7] abbreviates: read-out: Binding capacity/IC50 (nM) DRB1*04:05.
Where [8] appears, read: read-out: Binding capacity/IC50 (nM) DRB1*12:01.
The mark [9] stands for this setting: read-out: Binding capacity/IC50 (nM) DRB3*02:02.
[10] abbreviates: read-out: Binding capacity/IC50 (nM) DRB1*01:01.
Where [11] appears, read: read-out: Binding capacity/IC50 (nM) DRB1*08:02.
Where [12] appears, read: read-out: Binding capacity/IC50 (nM) DPA1*01:03 DPB1*03:01.
Setting [13] is: read-out: Binding capacity/IC50 (nM) DPA1*02:01 DPB1*14:01.
The mark [14] stands for this setting: read-out: Binding capacity/IC50 (nM) DRB1*13:02.

Where a chain is given by its changes, count along the chain named. Where two headings read alike, the source gives them in different places. Ends that are not written are not given here. A value given as a limit tells only on which side of the number the result lay.

As to `CSCC[C@H](NC(=O)[C@H](CCCCN)NC(=O)[C@H](C)NC(=O)[C@H](Cc1ccc(O)cc1)NC(=O)[C@H](CCCCN)NC(=O)CNC(=O)[C@@H](NC(=O)[C@H](CCCCN)NC(=O)[C@H](CC(C)C)NC(=O)[C@H](CC(N)=O)NC(=O)[C@H](CCCCN)NC(=O)[C@H](Cc1ccccc1)NC(=O)[C@@H]1CCCN1C(=O)[C@H](CCC(=O)O)NC(=O)[C@@H](N)CCC(N)=O)[C@@H](C)O)C(N)=O` [RT(343-357)], the IC50 on HLA-DR DRB1*08:02 stood at 947 nM; in [1], 6510 nM; against HLA-DR DRB1*04:05, 277 nM; against HLA-DR DRB1*12:01 it was 239 nM; against HLA-DR DRB1*13:02 it was 25000 nM; at HLA-DR DRB4*01:01 it was 2920 nM. The IC50 in assay [2] turned out to be 15100 nM; on HLA-DR DRB1*15:01 (setting [5]) it was 47 nM; in assay [3] it was 4210 nM; at HLA-DR DRB3*02:02, 8610 nM; against HLA-DR DRB1*01:01, 81 nM; in assay [4] (setting [6]), 115 nM.

Turning to `CC[C@H](C)[C@H](NC(=O)CNC(=O)[C@H](CCCCN)NC(=O)[C@H](Cc1c[nH]cn1)NC(=O)[C@H](C)NC(=O)[C@@H]1CCCN1C(=O)[C@@H](NC(=O)[C@H](Cc1c[nH]c2ccccc12)NC(=O)[C@H](CO)NC(=O)[C@H](CC(C)C)NC(=O)[C@H](Cc1ccc(O)cc1)NC(=O)[C@@H](NC(=O)[C@H](CCCCN)NC(=O)[C@H](CCC(=O)O)NC(=O)[C@@H](N)CCCCN)C(C)C)C(C)C)C(=O)NCC(=O)NCC(=O)N[C@@H](CC(N)=O)C(=O)N[C@@H](CCC(=O)O)C(N)=O` [RT(528-546)], the IC50 in assay [1] worked out at 76 nM; on HLA-DR DRB1*04:05 (setting [7]), 41 nM; at HLA-DR DRB1*12:01 (setting [8]), 2100 nM; at HLA-DR DRB4*01:01 it was 57 nM; in assay [2] it was 4850 nM; against HLA-DR DRB1*15:01, 97 nM. For the same compound, the IC50 in assay [3] is 150 nM; on HLA-DR DRB3*02:02 (setting [9]) it was 82 nM; on HLA-DR DRB1*01:01 (setting [10]), 16 nM; in [4] (setting [6]), 45 nM.

As for DEELLKAVRIIKILYQSNP-NH2 [rev(9-27)], the IC50 at HLA-DR DRB1*08:02 (setting [11]) came out at 9.5 nM; in assay [1] (setting [12]), 466 nM; on HLA-DR DRB1*04:05 (setting [7]) it was 64 nM; on HLA-DR DRB1*12:01 (setting [8]) it was 66 nM; in [2] (setting [13]), 710 nM; in [3], 5.8 nM. In addition, the IC50 on HLA-DR DRB3*02:02 (setting [9]) was found to be 4.4 nM; at HLA-DR DRB1*01:01 (setting [10]), 7.4 nM; in assay [4] it was 7 nM.

EAVRHFPRPWLHGL-NH2 [vpr(29-42)]: the IC50 was 130 nM against HLA-DR DRB1*08:02; 11 nM in [1]; over 30000 nM on HLA-DR DRB1*12:01; 278 nM at HLA-DR DRB4*01:01; 7690 nM in [2]; 112 nM at HLA-DR DRB1*15:01 (setting [5]). The IC50 in [3] was 139 nM; against HLA-DR DRB3*02:02, 9490 nM; on HLA-DR DRB1*01:01, 71 nM; in [4] (setting [6]), 2140 nM.

With IVALIIAIVVWTIV-NH2 [vpu(13-26)], the IC50 at HLA-DR DRB1*08:02 (setting [11]) is 765 nM; in assay [1] (setting [12]) it was 2580 nM; at HLA-DR DRB1*04:05 (setting [7]), 14900 nM; on HLA-DR DRB1*12:01 (setting [8]), 12700 nM; on HLA-DR DRB1*13:02 (setting [14]) it was over 30000 nM; in assay [2] (setting [13]) it was over 30000 nM. Further, the IC50 on HLA-DR DRB1*15:01 (setting [5]) was 2030 nM; in [3], 1300 nM; at HLA-DR DRB3*02:02 it was over 30000 nM; on HLA-DR DRB1*01:01 (setting [10]) it was 261 nM; in assay [4] (setting [6]), 29900 nM.

For LNKIVRMYSPVSILDI-NH2 [p24(138-153)], the IC50 at HLA-DR DRB1*08:02 (setting [11]) amounted to 3.1 nM; in assay [1] (setting [12]), 16 nM; at HLA-DR DRB1*04:05 (setting [7]) it was 49 nM; on HLA-DR DRB4*01:01 it was 25 nM; in assay [2] (setting [13]) it was 16 nM; in assay [3] it was 1 nM. For the same compound, the IC50 in [4] came to 357 nM.

“NYPIVQNLQGQMVHQAISPR-NH2 [p17(131-132)/p24(1-18)]”: the IC50 on HLA-DR DRB1*08:02 (setting [11]) amounted to 71 nM; in assay [1] (setting [12]) it was 344 nM; at HLA-DR DRB1*04:05 (setting [7]) it was 428 nM; at HLA-DR DRB1*12:01 (setting [8]), 940 nM; on HLA-DR DRB4*01:01, 131 nM; in assay [2] (setting [13]), 2990 nM. For the same compound, the IC50 on HLA-DR DRB1*15:01 (setting [5]) was determined as 211 nM; in [3], 484 nM; on HLA-DR DRB3*02:02 (setting [9]), 2880 nM; at HLA-DR DRB1*01:01 (setting [10]), 4.4 nM; in [4] (setting [6]) it was 55 nM.

For YAKMRSAHTNDVKQL-NH2 [RT(354-368)], the IC50 at HLA-DR DRB1*08:02 (setting [11]) was found to be 2.1 nM; in [1], 11900 nM; at HLA-DR DRB1*04:05 (setting [7]), 926 nM; at HLA-DR DRB1*12:01 (setting [8]), 4840 nM; on HLA-DR DRB1*13:02 (setting [14]), 74 nM; on HLA-DR DRB4*01:01 it was 1440 nM. For the same compound, the IC50 in assay [2] amounted to 919 nM; on HLA-DR DRB1*15:01 (setting [5]), 773 nM; in assay [3] it was 6960 nM; at HLA-DR DRB3*02:02 (setting [9]), 2850 nM; in assay [4] (setting [6]), 687 nM.
